ChEMBL document CHEMBL3301458, “MMV Malaria Box hERG screening”
Active and inactive are the calls of the source. The rule behind the calls is not given here.

Assays:
hERG (Kv11.1, KCNH2) [1] = molecular target: T1, hERG (Kv11.1, KCNH2) (Homo sapiens, UniProt Q12809); experiment: in vitro
Description: MMV: Malaria Box compounds were tested for inhibition of the human ether a go-go related gene (hERG), Kv11.1 channel, using IonWorks 384-well patch clamp electrophysiology at 11.1uM (3 independent assay plates up to 12 cells per concentration).

hERG (Kv11.1, KCNH2) [2] = molecular target: T1, hERG (Kv11.1, KCNH2); experiment: in vitro; remark: listed apart in the source
Description: MMV: Malaria Box compounds were tested for inhibition of the human ether a go-go related gene (hERG), Kv11.1 channel, using IonWorks 384-well patch clamp electrophysiology at 1.1uM (3 independent assay plates up to 12 cells per concentration).

T1 sequence (Q12809 whole entry): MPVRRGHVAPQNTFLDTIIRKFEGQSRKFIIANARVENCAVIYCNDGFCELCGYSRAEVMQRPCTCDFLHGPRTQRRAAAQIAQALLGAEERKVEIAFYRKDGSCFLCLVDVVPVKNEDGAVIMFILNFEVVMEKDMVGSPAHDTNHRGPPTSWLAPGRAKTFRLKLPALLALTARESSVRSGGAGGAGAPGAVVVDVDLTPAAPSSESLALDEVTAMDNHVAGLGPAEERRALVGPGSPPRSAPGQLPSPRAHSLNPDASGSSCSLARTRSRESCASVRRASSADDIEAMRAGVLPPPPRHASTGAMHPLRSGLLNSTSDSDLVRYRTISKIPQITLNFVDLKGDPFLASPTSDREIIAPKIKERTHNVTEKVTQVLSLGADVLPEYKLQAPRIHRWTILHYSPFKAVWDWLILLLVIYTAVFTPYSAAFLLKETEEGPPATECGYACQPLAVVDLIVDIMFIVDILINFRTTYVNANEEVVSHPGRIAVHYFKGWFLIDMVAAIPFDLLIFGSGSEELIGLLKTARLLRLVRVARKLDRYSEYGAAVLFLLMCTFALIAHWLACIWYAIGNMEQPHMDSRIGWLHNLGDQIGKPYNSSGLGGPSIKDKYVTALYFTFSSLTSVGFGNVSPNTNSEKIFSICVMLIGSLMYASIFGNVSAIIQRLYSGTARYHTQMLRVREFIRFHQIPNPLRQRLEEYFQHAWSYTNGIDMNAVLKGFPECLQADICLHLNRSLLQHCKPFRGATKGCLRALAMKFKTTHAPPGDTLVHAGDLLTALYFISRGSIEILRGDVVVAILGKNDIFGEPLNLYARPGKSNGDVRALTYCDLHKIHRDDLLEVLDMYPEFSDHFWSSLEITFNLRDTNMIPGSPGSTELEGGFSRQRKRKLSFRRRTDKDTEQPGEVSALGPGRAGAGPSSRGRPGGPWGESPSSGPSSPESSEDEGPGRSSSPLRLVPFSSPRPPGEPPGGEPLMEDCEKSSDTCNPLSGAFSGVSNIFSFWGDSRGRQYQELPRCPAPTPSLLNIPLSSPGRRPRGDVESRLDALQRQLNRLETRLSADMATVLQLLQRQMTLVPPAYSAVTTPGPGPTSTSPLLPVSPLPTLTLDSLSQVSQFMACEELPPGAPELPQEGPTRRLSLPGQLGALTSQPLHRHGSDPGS

| Structure (SMILES) | inhibition at 11.1 µM (hERG (Kv11.1, KCNH2) [1]) | inhibition at 1.1 µM (hERG (Kv11.1, KCNH2) [2]) |
| --- | --- | --- |
| O=c1nc(C=Cc2ccc(Br)cc2)oc2ccccc12 | 16% (inactive) | 8% |
| Cc1ccc(C)c(-c2csc(Nc3ccc(C)c(C)c3)n2)c1 | 100% | 57% |
| COc1ccc(-n2ccnc2SCC(=O)Nc2cc(C)ccc2C)c(OC)c1 | 29% | 5% |
| CCOC(=O)c1c(C)n(-c2ccc(Cl)cc2)c2ccc(OC(=O)C=Cc3ccccc3)cc12 | 9% (inactive) | 2% |
| CCCN(CCC)CC(O)COc1ccccc1C(=O)Nc1ccccc1 (stereo unspecified) | 98% | 57% |
| O=C(NCC(c1ccsc1)N1CCCCCC1)c1ccc(C(F)(F)F)cc1 (stereo unspecified) | 94% | 50% |
| CCCCN(CCCC)S(=O)(=O)c1ccc(NC(=O)c2ccco2)cc1 | 30% | 13% |
| COc1ccc(CCN2C(=O)c3[nH]nc(-c4cc(Cl)c(C)cc4O)c3C2c2ccccc2F)cc1 (stereo unspecified) | 5% | 51% |
| COC(=O)c1ccc(Cl)c2c1C1C=CCC1C(c1cccc3ccccc13)N2 (stereo unspecified) | 110% (active) | 10% |
| Nc1ccn([C@@H]2O[C@H](CO)[C@@H](O)[C@H]2O)c(=O)n1 [CYTIDINE] | 8% (inactive) | 0% |
| CC1CCCCN1CCCNC(=O)c1ccc2c(c1)sc1nc(-c3ccc(F)cc3)cn12 (stereo unspecified) | 81% | 64% |
| Cc1cc(Nc2ccc3ccccc3c2)n2ncnc2n1 | 25% (inactive) | 9% |
| Brc1ccc(Nc2nc3ccccc3nc2Nc2ccc(Br)cc2)cc1 | 2% (inactive) | 2% |
| COc1cc(OC)c(N(C)C(=O)c2cc3c(s2)-c2ccccc2S(=O)(=O)C3)cc1Cl | 41% | 3% |
| Cc1ccc(OCCCCCCNCCO)c(C)c1 | 21% (inactive) | -6% |
| COc1cccc(C2(C)Nc3ccccc3-c3nc4ccccc4n32)c1 (stereo unspecified) | 18% (inactive) | 10% |
| COc1ccc(C(=O)C2CC2c2ccc(Cl)cc2)cc1 (stereo unspecified) | 13% (inactive) | -6% |
| COc1ccc(C(=O)C(CCC(CNC(C)(C)C)C(=O)c2ccc(OC)cc2)CNC(C)(C)C)cc1 (stereo unspecified) | 33% | 9% |
| O=C(Nc1ccc(CN2CCOCC2)cc1)c1ccc(-c2ccc(Br)cc2)o1 | 98% (active) | 42% |
| O=C(Nc1ccc(Br)cc1)Nc1cccc(Cl)c1 | 11% (inactive) | -5% |
| CCOc1ccc2c(c1)CN(Cc1ccc(Cl)cc1)CO2 | 99% (active) | 33% |
| c1ccc(CNc2nc(Nc3ccccc3)nc3ccccc23)cc1 | 69% (active) | 17% |
| O=C(Nc1ccccc1O)c1ccc(Oc2cccc(C(=O)Nc3ccccc3O)c2)cc1 | 5% (inactive) | -2% |
| CCn1c2c(c(=N)c3c1CCC3)CCCC2 | 104% (active) | 48% |
| COc1ccc2c(c1OC)C(=O)N1c3ccccc3N=C(c3ccc(C)cc3)CC21 (stereo unspecified) | 10% (inactive) | 25% |

| Structure (SMILES) | inhibition at 11.1 µM (hERG (Kv11.1, KCNH2) [1]) | inhibition at 1.1 µM (hERG (Kv11.1, KCNH2) [2]) |
| --- | --- | --- |
| COc1ccc2c(=O)cc(C(Cl)(Cl)Cl)oc2c1 | 9% (inactive) | 6% |
| CC(C)(C)CC(C)(C)NCC(O)COc1ccc2c(c1)CCC2 (stereo unspecified) | 62% (active) | 8% |
| COc1cccc(C(=O)NC(c2ccc(C)cc2)c2cc(Cl)c3cccnc3c2O)c1 (stereo unspecified) | -6% (inactive) | 4% |
| Cc1cc(=O)oc2c1ccc1oc(C(=O)c3ccccc3)c(C)c12 | 6% (inactive) | -6% |
| COc1ccc(-c2c(C)nn3c(N)c(C#N)cnc23)cc1OC | 11% (inactive) | 11% |
| Oc1c(CN2CCN(c3ccccc3F)CC2)cc(Br)c2cccnc12 | 46% | -9% |
| Cc1ccc2cc3c(N)c4c(C)ccc(C)c4nc3nc2c1 | 60% (active) | 16% |
| Cc1c(C)n(Cc2ccc(F)cc2)c2ccc(C(=O)NCc3ccco3)cc12 | 5% (inactive) | -2% |
| Cn1c(=O)c2cc(C(=O)NCCCN3CCCCCC3)sc2c2ccccc21 | 6% (inactive) | -5% |
| CC(C)(C)c1ccc2c(c1)CN(Cc1ccc(Cl)cc1)CO2 | 12% (inactive) | 25% |
| COc1ccc(C(=O)Nc2ccc(Cl)cc2C(=O)Nc2ccncc2)cc1 | -3% (inactive) | -6% |
| CCCCCCc1cc2cc(-c3nc4ccccc4[nH]3)c(=Nc3ccccc3C)oc2cc1O | -1% (inactive) | 2% |
| CCCCCCc1cc2cc(-c3csc(C=Cc4ccccc4)n3)c(=O)oc2cc1O | 93% | 81% |
| O=c1c2c([nH]c3ccccc13)CCCC2 | 6% (inactive) | 4% |
| CN(N=O)C1=C(NC2CCCCC2)C(=O)c2ccccc2C1=O | 70% (active) | -2% |
| COc1cc2cc(C(=O)Nc3ccccc3)c(N)nc2cc1OC | 69% (active) | 10% |
| COc1ccc2c(c1)OC(O)(C(F)(F)C(F)(F)F)CC2=O (stereo unspecified) | 25% | 4% |
| CCn1nc(-c2ccc(C(=O)OC)cc2)nc2c(=O)n(C)c(=O)nc1-2 | 9% (inactive) | -2% |
| COc1ccc(-c2nc(NC(=O)CS(=O)(=O)c3ccc(F)cc3)sc2C)cc1 | 69% (active) | 7% |
| CCCOCc1cc(CN2CCN(c3cccc(Cl)c3)CC2)c(O)c2ncccc12 | 106% (active) | 3% |
| Oc1ccc(-c2nc(-c3ccc4oc5ccc(-c6[nH]c(-c7ccc(O)cc7)nc6-c6ccccc6)cc5c4c3)c(-c3ccccc3)[nH]2)cc1 | 54% (active) | 12% |
| CCOc1ccc2nc(C)cc(Nc3ccc(Br)cc3)c2c1 | 16% (inactive) | 3% |
| CCOC(=O)c1ccc2[nH]c(-c3ccccc3)cc(=O)c2c1 | 7% (inactive) | -1% |
| CCCCCCc1cc(O)c2c3c(c(=O)oc2c1)CCC(C)C3 (stereo unspecified) | -7% (inactive) | -5% |
| CCOc1ccc(C2N(C)c3ccccc3N2C)cc1 | 7% (inactive) | 2% |

| Structure (SMILES) | inhibition at 11.1 µM (hERG (Kv11.1, KCNH2) [1]) | inhibition at 1.1 µM (hERG (Kv11.1, KCNH2) [2]) |
| --- | --- | --- |
| CC(C)(C)c1ccc(C(=O)Nc2c3c(nn2-c2cccc(Cl)c2)CSC3)cc1 | 0% (inactive) | 4% |
| COc1ccc(CCNC(=O)c2cc(S(=O)(=O)N3CC(C)CC(C)C3)ccc2Sc2ccc(F)cc2)cc1OC (stereo unspecified) | 5% (inactive) | 10% |
| CN(C)CCNc1cc(-c2ccccc2)nc2ccccc12 | 66% (active) | 20% |
| CCN(CC)CCCNc1nc(-c2ccc(Cl)cc2)nc2ccccc12 | 94% (active) | 8% |
| COc1cc(C(=O)Nc2ccc(-c3nc4ccccc4[nH]3)cc2)cc(OC)c1OC | 17% (inactive) | -12% |
| COc1cccc(Cn2c(Oc3ccccc3)nc3c2c(=O)n(C)c(=O)n3C)c1 | 26% | -4% |
| Cc1ccc(CN2CCC(C(=O)Nc3ccc(-c4cc5ccccc5[nH]4)cc3)CC2)o1 | 88% (active) | 9% |
| COc1ccc2nc(C)cc(Nc3cccc(O)c3)c2c1 | 83% (active) | 32% |
| COCCNC(=O)c1ccc(OC2CCN(Cc3ccc(F)c(F)c3)CC2)c(Cl)c1 | 68% (active) | 7% |
| Cc1cc(C)c2nc(N3CCC(C(=O)NCCCN4CCC(N5CCCCC5)CC4)CC3)sc2c1 | 60% (active) | 18% |
| COCCN(C(=O)Cc1cccs1)C(C(=O)NCc1ccc(OC)cc1)c1ccc(C(C)C)cc1 (stereo unspecified) | 52% (active) | 11% |
| CC1CN(C(=O)c2sc3ccccc3c2Cl)CC(C)O1 (stereo unspecified) | 10% (inactive) | 4% |
| CC1CC2=C(CC1CNCCCN(C)C)C(C)(C)CCC2 (stereo unspecified) | 77% (active) | -3% |
| CCCCCC(=O)N1c2ccccc2N=C2CC(c3ccc(OC)c(OC)c3)CC(O)=C2C1c1ccc(C(F)(F)F)cc1 (stereo unspecified) | 23% (inactive) | 9% |
| OC(CNC1CCCCC1)Cn1c2ccccc2c2ccccc21 (stereo unspecified) | 23% (inactive) | 14% |
| CN(C)c1ccc(-c2nc3cc(N)ccc3[nH]2)cc1 | 36% | 14% |
| Cn1c(=O)n(C)c2cc(CNCCNc3ccnc4cc(Cl)ccc34)ccc21 | 60% (active) | 16% |
| COc1ccc(N2CCN(C(CNC(=O)C3CCCCC3)c3ccc4c(c3)OCO4)CC2)cc1 (stereo unspecified) | 51% (active) | 17% |
| CCCCC(O)(c1ccc(Cl)cc1)C(CN1CCOCC1)c1ccc(Cl)cc1 (stereo unspecified) | 35% | 18% |
| CN(C)c1ccc(C=Cc2nc(=O)c3ccccc3o2)cc1 | 0% (inactive) | 2% |
| O=c1cc(NC2CCN(CCCc3ccccc3)CC2)c2cc(Cl)ccc2o1 | 101% | 89% |
| O=c1nc(C=Cc2ccc(Cl)cc2)oc2ccccc12 | 10% (inactive) | -5% |
| Cc1ccc(N2C3c4ccccc4N(S(=O)(=O)c4ccc(C)cc4)C2c2ccccc2N3S(=O)(=O)c2ccc(C)cc2)cc1 | 18% (inactive) | 18% |
